Laboratory results taken from US20050214870A1, “Assay” (priority 2001, published 2005).

Columns and labels:
[1] = cited from earlier work
human HERG K+ channel [2] = target: T1, human HERG K+ channel (Homo sapiens, UniProt Q12809)
Procedure: (§1) Adherent HEK293 cells expressing human HERG, were grown in MEM Earles medium (Life Technologies) supplemented with 10% foetal calf serum (PAA Laboratories), 2 mM L-glutamine (Sigma), 1 mM sodium pyruvate (Sigma), 0.4 mg/ml G418 (Life Technologies) and an addition of 1× non-essential amino acids (Life Technologies). The cells were grown at 37° C. in a humidified atmosphere with 5% CO2 in T225 cm^3 flasks.
(§2) All cells were pelleted, washed twice with PBS and snap-frozen on dry ice prior to storage at −80° C. until required.
(§3) Cell membrane fractions were prepared from frozen aliquots of cells. All procedures were carried out at 4° C. unless otherwise stated. Frozen aliquots of cells were thawed at room temperature and resuspended in homogenisation buffer (50 mM Tris base, 10 mM KCl, 1-1.2 mM MgCl2, pH 7.4). The cells were then disrupted by homogenisation in an Omni LabTek homogeniser at 20,000 rpm for 30 seconds. The homogenate was centrifuged for 20 minutes at 48,000×g (4° C., Sorvall RC5B centrifuge) and the supernatant removed. […] Protein content was determined using a Coomassie Blue based protein assay kit. […]
The scintillation proximity assay (SPA) was carried out under identical buffer conditions to those used in the filtration assay. […] Beads were allowed to settle for a minimum of 30 minutes before plates were counted for retained radioactivity on a TopCount NTX scintillation counter.

human HERG K+ channel [3] = target: T1, human HERG K+ channel; remark: listed apart in the source
Procedure: as §1, §2, §3
In each experiment, triplicate assays were routinely performed and the data were averaged. Specific binding was analysed by nonliiear regression fit using GraphPad Prism software (GraphPad, San Diego). […]

T1 sequence (Q12809 whole entry): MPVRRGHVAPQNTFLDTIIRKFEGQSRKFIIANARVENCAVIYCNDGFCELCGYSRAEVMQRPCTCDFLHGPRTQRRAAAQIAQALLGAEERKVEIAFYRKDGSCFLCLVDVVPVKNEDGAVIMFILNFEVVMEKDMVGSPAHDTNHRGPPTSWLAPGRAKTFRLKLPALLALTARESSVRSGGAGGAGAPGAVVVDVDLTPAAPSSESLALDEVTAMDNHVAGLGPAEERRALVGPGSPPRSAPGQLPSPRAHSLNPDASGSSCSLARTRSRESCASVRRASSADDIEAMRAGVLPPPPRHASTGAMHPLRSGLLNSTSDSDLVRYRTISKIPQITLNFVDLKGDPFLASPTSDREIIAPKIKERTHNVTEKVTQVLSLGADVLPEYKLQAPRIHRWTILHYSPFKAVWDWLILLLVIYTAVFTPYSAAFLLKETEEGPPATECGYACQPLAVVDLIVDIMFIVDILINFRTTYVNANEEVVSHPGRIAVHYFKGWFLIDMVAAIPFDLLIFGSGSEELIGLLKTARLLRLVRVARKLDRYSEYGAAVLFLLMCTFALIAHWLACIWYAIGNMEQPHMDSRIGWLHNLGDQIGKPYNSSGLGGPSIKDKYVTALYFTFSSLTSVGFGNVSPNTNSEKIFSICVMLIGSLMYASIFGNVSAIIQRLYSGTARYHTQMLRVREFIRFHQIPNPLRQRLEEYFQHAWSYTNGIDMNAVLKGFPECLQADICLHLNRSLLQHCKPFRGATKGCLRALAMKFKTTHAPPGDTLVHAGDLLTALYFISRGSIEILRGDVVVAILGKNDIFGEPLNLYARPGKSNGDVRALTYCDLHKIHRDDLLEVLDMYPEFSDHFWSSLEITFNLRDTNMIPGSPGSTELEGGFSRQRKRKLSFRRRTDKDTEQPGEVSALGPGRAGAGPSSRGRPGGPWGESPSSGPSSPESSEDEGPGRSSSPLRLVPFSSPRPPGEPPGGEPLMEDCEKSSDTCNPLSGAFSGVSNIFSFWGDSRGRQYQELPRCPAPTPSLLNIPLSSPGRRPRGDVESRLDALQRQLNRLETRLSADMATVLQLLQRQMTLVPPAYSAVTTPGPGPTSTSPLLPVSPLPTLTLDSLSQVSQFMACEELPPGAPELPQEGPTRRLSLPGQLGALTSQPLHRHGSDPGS

Structure (SMILES) | effect on QT interval of the electrocardiogram in man [1] | SPA 96 pKi (human HERG K+ channel [2]) | SPA 384 pKi (human HERG K+ channel [2]) | Filter binding pKi (human HERG K+ channel [3])
COc1cc(N)c(Cl)cc1C(=O)NC1CCN(CCCOc2ccc(F)cc2)CC1OC (stereo not shown) [Cisapride] | prolong the QT interval |  |  | 
CC(C)NC[C@@H](O)c1ccc(NS(C)(=O)=O)cc1 [D-Sotalol] |  | <5 | <5 | <5
